This note sets out measurements from patent US20190142810A1, “MITOCHONDRIAL INHIBITORS FOR THE TREATMENT OF PROLIFERATION DISORDERS” (Basilea Pharmaceutica International AG, priority 2016, published 2019).

One test relates to HeLa galactose cells. In words: Cell growth and proliferation assay of HeLa galactose cells (crystal violet). Format: cell-based. The following applies: Homo sapiens, HeLa, 72 h, 72 hours incubation, crystal violet staining, absorbance at 590 nm. The method, boiled down: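 HeLa cells adapted stepwise over three weeks to glucose-free galactose medium plus 10 mM galactose, seeded at 2000 cells/well and treated 72 h with compounds (0.001% DMSO) at 37° C. Growth read by crystal violet staining, dye solubilized and absorbance at 590 nm; IC50 from concentration-response curves.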

The subject of test [1] is Oxygen consumption (mitochondrial function). Briefly: Oxygen consumption assay (MitoXpress probe). Format: cell-based. The following applies: 5 h, MitoXpress probe signal, kinetic analysis at 37° C. for 5 hours, compared to untreated cells. The method, boiled down: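 Cells seeded at 50′000/well, after 24 h given fresh media with inhibitor at a range of concentrations, then MitoXpress probe under mineral oil. Kinetic TRF read (380 nm excitation, 650 or 665 nm emission) at 37° C. for 5 hours. IC50 = concentration inhibiting 50% of probe signal versus untreated cells.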

Take `Cc1nsc(NC(=O)N2CCC(=Cc3ccc(NCCCN)cc3F)CC2)n1` [Example 102]: the figures for the IC50 (with HeLa galactose cells; in test [1]) were 189 nM and 395 nM, respectively.

With `COc1ccc(C=C2CCCN(C(=O)Nc3nc(C)ns3)CC2)c(F)c1` [Example 103], the IC50 was 71 nM with HeLa galactose cells and 156 nM in test [1].

On to `Nc1nsc(NC(=O)N2CCC(Cc3ccc(Cl)cc3F)CC2)n1` [Example 108, N-(3-amino-1,2,4-thiadiazol-5-yl)-4-[(4-chloro-2-fluoro-phenyl)methyl]piperidine-1-carboxamide], for which the results for the half-maximal inhibitory concentration (IC50) (in the test with HeLa galactose cells; in test [1]) were 96 nM and 132 nM, respectively.

For the molecule `CNc1ccc(C=C2CCN(C(=O)Nc3nc(C)ns3)CC2)c(F)c1` [Example 109], the IC50 with HeLa galactose cells came to 55 nM; in test [1], 103 nM.

`Cc1nsc(NC(=O)N2CCC(=Cc3ccc(N(C)CCO)cc3F)CC2)n1` [Example 110]: the half-maximal inhibitory concentration (IC50) with HeLa galactose cells was found to be 66 nM; in test [1], 151 nM.

Consider `Cc1nsc(NC(=O)N2CCC(=Cc3c(F)cc(N(C)C)cc3F)CC2)n1` [Example 112, 4-[[4-(dimethylamino)-2,6-difluoro-phenyl]methylene]-N-(3-methyl-1,2,4-thiadiazol-5-yl)piperidine-1-carboxamide], for which the IC50 worked out at 12 nM in the test on HeLa galactose cells and 23 nM in test [1].

As to `Cc1nsc(NC(=O)N2CCC(Cc3c(F)cc(N(C)C)cc3F)CC2)n1` [Example 113, 4-[[4-(dimethylamino)-2,6-difluoro-phenyl]methyl]-N-(3-methyl-1,2,4-thiadiazol-5-yl)piperidine-1-carboxamide], the values for the concentration for half-maximal inhibition (IC50) (with HeLa galactose cells; in test [1]) were 35 nM and 52 nM, respectively.

Turning to `Cc1nsc(NC(=O)N2CCCC(=Cc3c(F)cc(Cl)cc3F)CC2)n1` [Example 114], the IC50 in the test on HeLa galactose cells is 19 nM; in test [1] it was 65 nM.

For `Cc1nsc(NC(=O)N2CCC/C(=C/c3c(F)cc(N(C)C)cc3F)CC2)n1` [Example 115, (4Z)-4-[[4-(dimethylamino)-2,6-difluoro-phenyl]methylene]-N-(3-methyl-1,2,4-thiadiazol-5-yl)azepane-1-carboxamide], the results for the IC50 (in the test with HeLa galactose cells; in test [1]) were 29 nM and 79 nM, respectively.

For the molecule `Cc1nsc(NC(=O)N2CCCC(=Cc3ccc(C(F)(F)F)cc3F)CC2)n1` [Example 116], the results for the IC50 (in the test with HeLa galactose cells; in test [1]) were 54 nM and 150 nM, respectively.

With `Cc1nsc(NC(=O)N2CCCC(=Cc3ccc(C#N)cc3F)CC2)n1` [Example 117], the IC50 in the test on HeLa galactose cells came out at 77 nM; in test [1] it was 145 nM.

`Cc1nsc(NC(=O)N2CCC/C(=C/c3ccc(Cl)cc3F)CC2)n1` [Example 118, (4Z)-4-[(4-chloro-2-fluoro-phenyl)methylene]-N-(3-methyl-1,2,4-thiadiazol-5-yl)azepane-1-carboxamide]: the IC50 in the test with HeLa galactose cells is 43 nM; in test [1] it was 70 nM.

As to `Cc1nsc(NC(=O)N2CCCC(Cc3ccc(C(F)(F)F)cc3F)CC2)n1` (centres unmarked) [Example 120, 4-[[2-fluoro-4-(trifluoromethyl)phenyl]methyl]-N-(3-methyl-1,2,4-thiadiazol-5-yl)azepane-1-carboxamide], the half-inhibitory concentration (IC50) in the test on HeLa galactose cells was 32 nM; in test [1], 54 nM.

In the case of `Cc1nsc(NC(=O)N2CCCC(Cc3c(F)cc(N(C)C)cc3F)CC2)n1` (centres unmarked) [Example 121, 4-[[4-(dimethylamino)-2,6-difluoro-phenyl]methyl]-N-(3-methyl-1,2,4-thiadiazol-5-yl)azepane-1-carboxamide], the IC50 in the test with HeLa galactose cells is 20 nM; in test [1] it was 54 nM.

On to `Cc1nsc(NC(=O)N2CCCC(Cc3c(F)cc(Cl)cc3F)CC2)n1` (centres unmarked) [Example 127, 4-[(4-chloro-2,6-difluoro-phenyl)methyl]-N-(3-methyl-1,2,4-thiadiazol-5-yl)azepane-1-carboxamide], for which the values for the IC50 (in the test on HeLa galactose cells; in test [1]) were 15 nM and 35 nM, respectively.

For `Cc1cc(NC(=O)N2CCC(=Cc3ccc(Cl)cc3F)CC2)ccn1` [Example 128], the values for the half-inhibitory concentration (IC50) (with HeLa galactose cells; in test [1]) were 33 nM and 168 nM, respectively.

Turning to `Cc1nsc(NC(=O)N2CCC(Cc3c(F)cc(C#N)cc3F)CC2)n1` [Example 129, 4-[(4-cyano-2,6-difluoro-phenyl)methyl]-N-(3-methyl-1,2,4-thiadiazol-5-yl)piperidine-1-carboxamide], the values for the IC50 (in the test on HeLa galactose cells; in test [1]) were 16 nM and 20 nM, respectively.

For the molecule `Cc1cc(NC(=O)N2CCC(=Cc3c(F)cc(Cl)cc3F)CC2)ccn1` [Example 137, 4-[(4-chloro-2,6-difluoro-phenyl)methylene]-N-(2-methyl-4-pyridyl)piperidine-1-carboxamide], the half-inhibitory concentration (IC50) in the test with HeLa galactose cells is 17 nM; in test [1] it was 42 nM.

For the molecule `Cc1cc(NC(=O)N2CCC(=Cc3c(F)cc(C(F)(F)F)cc3F)CC2)ccn1` [Example 138, 4-[[2,6-difluoro-4-(trifluoromethyl)phenyl]methylene]-N-(2-methyl-4-pyridyl)piperidine-1-carboxamide], the figures for the half-inhibitory concentration (IC50) (with HeLa galactose cells; in test [1]) were 21 nM and 147 nM, respectively.

As to `Cc1cc(NC(=O)N2CCC(Cc3c(F)cc(C(F)(F)F)cc3F)CC2)ccn1` [Example 139], the figures for the IC50 (with HeLa galactose cells; in test [1]) were 22 nM and 152 nM, respectively.

In the case of `COc1ccc(C(=O)C2CCN(C(=O)Nc3nc(C)ns3)CC2)c(F)c1` [Example 140, 4-(2-fluoro-4-methoxy-benzoyl)-N-(3-methyl-1,2,4-thiadiazol-5-yl)piperidine-1-carboxamide], the concentration for half-maximal inhibition (IC50) was found to be 43 nM with HeLa galactose cells and 94 nM in test [1].

As to `Cc1nsc(NC(=O)N2CCC(C(=O)c3ccc(Br)cc3F)CC2)n1` [Example 141, 4-(4-bromo-2-fluoro-benzoyl)-N-(3-methyl-1,2,4-thiadiazol-5-yl)-piperidine-1-carboxamide], the IC50 came out at 29 nM in the test with HeLa galactose cells and 56 nM in test [1].

As to `Cc1cc(NC(=O)N2CCC(C(=O)c3ccc(C(F)(F)F)cc3F)CC2)ccn1` [Example 143], the IC50 was determined as 43 nM in the test with HeLa galactose cells and 103 nM in test [1].

`CCc1cc(NC(=O)N2CCC(=Cc3ccc(Cl)cc3F)CC2)ccn1` [Example 144, 4-[(4-chloro-2-fluoro-phenyl)methylene]-N-(2-ethyl-4-pyridyl)piperidine-1-carboxamide]: the results for the half-maximal inhibitory concentration (IC50) (with HeLa galactose cells; in test [1]) were 8 nM and 53 nM, respectively.

In the case of `Cc1cc(NC(=O)N2CCC(Cc3c(F)cc(Cl)cc3F)CC2)ccn1` [Example 145], the IC50 was 15 nM in the test on HeLa galactose cells and 106 nM in test [1].

Consider `COCCN(C)c1cc(F)c(C=C2CCN(C(=O)Nc3nc(C)ns3)CC2)c(F)c1` [Example 146, 4-[[2,6-difluoro-4-[2-methoxyethyl(methyl)amino]phenyl]methylene]-N-(3-methyl-1,2,4-thiadiazol-5-yl)piperidine-1-carboxamide], for which the IC50 is 13 nM with HeLa galactose cells and 20 nM in test [1].

Turning to `Cc1cc(NC(=O)N2CCC(=Cc3c(F)cc(N(C)C)cc3F)CC2)sn1` [Example 148, 4-[[4-(dimethylamino)-2,6-difluoro-phenyl]methylene]-N-(3-methylisothiazol-5-yl)piperidine-1-carboxamide], the concentration for half-maximal inhibition (IC50) with HeLa galactose cells stood at 9 nM; in test [1], 16 nM.

`CCc1nsc(NC(=O)N2CCC(=Cc3c(F)cc(N(C)C)cc3F)CC2)n1` [Example 149, 4-[[4-(dimethylamino)-2,6-difluoro-phenyl]methylene]-N-(3-ethyl-1,2,4-thiadiazol-5-yl)piperidine-1-carboxamide]: the half-inhibitory concentration (IC50) is 11 nM with HeLa galactose cells and 13 nM in test [1].

For the molecule `Cc1cc(NC(=O)N2CCC(Cc3c(F)cc(N(C)C)cc3F)CC2)sn1` [Example 151, 4-[[4-(dimethylamino)-2,6-difluoro-phenyl]methyl]-N-(3-methylisothiazol-5-yl)piperidine-1-carboxamide], the IC50 in the test with HeLa galactose cells was 20 nM; in test [1], 42 nM.

Consider `CCc1nsc(NC(=O)N2CCC(Cc3c(F)cc(N(C)C)cc3F)CC2)n1` [Example 152, 4-[[4-(dimethylamino)-2,6-difluoro-phenyl]methyl]-N-(3-ethyl-1,2,4-thiadiazol-5-yl)piperidine-1-carboxamide], for which the IC50 was 19 nM in the test with HeLa galactose cells and 39 nM in test [1].

Consider `Cc1cc(NC(=O)N2CCC(Cc3c(F)cc(N(C)C)cc3F)CC2)ccn1` [Example 153], for which the IC50 in the test with HeLa galactose cells was 34 nM; in test [1] it was 119 nM.

For the molecule `Cc1cc(NC(=O)N2CCC(=Cc3c(F)cc(N(C)C)cc3F)CC2)ccn1` [Example 154], the IC50 in the test with HeLa galactose cells was determined as 37 nM; in test [1], 192 nM.

In the case of `Cc1nsc(NC(=O)N2CCC(=Cc3c(F)cc(N(C)C4CCOC4)cc3F)CC2)n1` (centres unmarked) [Example 157], the IC50 came to 51 nM in the test on HeLa galactose cells and 109 nM in test [1].

Regarding `Cc1nsc(NC(=O)N2CCC(=Cc3c(F)cc(N(C)CCO)cc3F)CC2)n1` [Example 158, 4-[[2,6-difluoro-4-[2-hydroxyethyl(methyl)amino]phenyl]methylene]-N-(3-methyl-1,2,4-thiadiazol-5-yl)piperidine-1-carboxamide], the IC50 came out at 28 nM with HeLa galactose cells and 40 nM in test [1].

Turning to `COC1CN(Cc2ccc(Cl)cc2F)CCN(C(=O)Nc2nc(C)ns2)C1` (centres unmarked) [Example 160, 4-[(4-chloro-2-fluoro-phenyl)methyl]-6-methoxy-N-(3-methyl-1,2,4-thiadiazol-5-yl)-1,4-diazepane-1-carboxamide], the half-maximal inhibitory concentration (IC50) in the test with HeLa galactose cells is 21 nM; in test [1], 65 nM.

On to `Cc1nsc(NC(=O)N2CCC(=Cc3c(F)cc(N(C)CC4CN(C)C4)cc3F)CC2)n1` [Example 161], for which the figures for the half-maximal inhibitory concentration (IC50) (with HeLa galactose cells; in test [1]) were 50 nM and 159 nM, respectively.

For the molecule `Cc1nsc(NC(=O)N2CCC(=Cc3c(F)cc(N(C)CC#N)cc3F)CC2)n1` [Example 164, 4-[[4-[cyanomethyl(methyl)amino]-2,6-difluoro-phenyl]methylene]-N-(3-methyl-1,2,4-thiadiazol-5-yl)piperidine-1-carboxamide], the IC50 in the test on HeLa galactose cells worked out at 19 nM; in test [1], 16 nM.
